Experimental data from ChEMBL document CHEMBL4184302 (Bioorg Med Chem Lett, 2018).
Active and inactive are the calls of the source. No cut-off for these calls is given here.

Columns and labels:
[1] = Inhibition of bacterial N-terminal His6-tagged VIM2 (27 to 266 residues) expressed in Escherichia coli BL21 DE3 pLysS cells using FC-5 as substrate pretreated for 10 mins followed by substrate addition measured every 60 secs by fluorescence assay; design: species or system Bacteria
[2] = Inhibition of bacterial N-terminal His6-tagged NDM1 expressed in Escherichia coli BL21 DE3 pLysS cells using FC-5 as substrate pretreated for 10 mins followed by substrate addition measured every 60 secs by fluorescence assay; design: species or system Bacteria
[3] = Inhibition of bacterial N-terminal His6-tagged TEM1 expressed in Escherichia coli BL21 DE3 pLysS cells using FC-5 as substrate pretreated for 10 mins followed by substrate addition measured every 60 secs by fluorescence assay; design: species or system Bacteria
[4] = Inhibition of bacterial N-terminal His6-tagged VIM2 (27 to 266 residues) expressed in Escherichia coli BL21 DE3 pLysS cells using FC-5 as substrate pretreated for 10 mins followed by substrate addition by fluorescence assay; design: species or system Bacteria
Bacteria [5] = experiment: Reversible inhibition of bacterial N-terminal His6-tagged VIM2 (27 to 266 residues) expressed in Escherichia coli BL21 DE3 pLysS cells at 11 uM using FC-5 as substrate pretreated for 30 mins followed by substrate addition by jump-dilution method
Bacteria [6] = experiment: Competitive inhibition of bacterial N-terminal His6-tagged VIM2 (27 to 266 residues) expressed in Escherichia coli BL21 DE3 pLysS cells using varying levels of FC-5 as substrate by fluorescence assay
Bacteria [7] = experiment: Reversible inhibition of bacterial N-terminal His6-tagged VIM2 (27 to 266 residues) expressed in Escherichia coli BL21 DE3 pLysS cells at 415 uM using FC-5 as substrate pretreated for 30 mins followed by substrate addition by jump-dilution method
[8] = Binding affinity to bacterial N-terminal His6-tagged VIM2 (27 to 266 residues) expressed in Escherichia coli BL21 DE3 pLysS cells by isothermal calorimetric method; design: species or system Bacteria
Escherichia coli [9] = experiment: Potentiation of meropenem-induced antimicrobial activity against Escherichia coli BL21(DE3) harboring VIM-2 assessed as meropenem MIC at 50 uM measured after 16 to 20 hrs by microdilution broth method (reference value: 16 mg/L); type: functional
Escherichia coli [10] = experiment: Potentiation of meropenem-induced antimicrobial activity against Escherichia coli BL21(DE3) harboring VIM-2 assessed as meropenem MIC at 100 uM measured after 16 to 20 hrs by microdilution broth method (reference value: 16 mg/L); type: functional
Escherichia coli [11] = experiment: Potentiation of meropenem-induced antimicrobial activity against Escherichia coli BL21(DE3) assessed as meropenem MIC at 100 uM measured after 16 to 20 hrs by microdilution broth method (reference value: <0.125 mg/L); type: functional
Escherichia coli [12] = experiment: Potentiation of meropenem-induced antimicrobial activity against Escherichia coli BL21(DE3) assessed as meropenem MIC at 50 uM measured after 16 to 20 hrs by microdilution broth method (reference value: <0.125 mg/L); type: functional
Escherichia coli [13] = experiment: Potentiation of meropenem-induced antimicrobial activity against Escherichia coli BL21(DE3) harboring VIM-2 assessed as meropenem MIC at 25 uM measured after 16 to 20 hrs by microdilution broth method (reference value: 16 mg/L); type: functional
Escherichia coli [14] = experiment: Potentiation of meropenem-induced antimicrobial activity against Escherichia coli BL21(DE3) assessed as meropenem MIC at 25 uM measured after 16 to 20 hrs by microdilution broth method (reference value: <0.125 mg/L); type: functional
Escherichia coli [15] = experiment: Potentiation of meropenem-induced antimicrobial activity against Escherichia coli BL21(DE3) harboring VIM-2 assessed as meropenem MIC at 10 uM measured after 16 to 20 hrs by microdilution broth method (reference value: 16 mg/L); type: functional
Escherichia coli [16] = experiment: Potentiation of meropenem-induced antimicrobial activity against Escherichia coli BL21(DE3) assessed as meropenem MIC at 10 uM measured after 16 to 20 hrs by microdilution broth method (reference value: <0.125 mg/L); type: functional

Structure (SMILES)	IC50 [1] [µM]	pIC50 [1]	IC50 [2] [µM]	pIC50 [2]	IC50 [3] [µM]	pIC50 [3]	IC50 [4] [µM]	inhibition (Bacteria [5])	inhibition (Bacteria [6])	inhibition (Bacteria [7])	Kd [8] [µM]	MIC (Escherichia coli [9]) [µg/mL]	MIC (Escherichia coli [10]) [µg/mL]	MIC (Escherichia coli [11]) [µg/mL]	MIC (Escherichia coli [12]) [µg/mL]	MIC (Escherichia coli [13]) [µg/mL]	MIC (Escherichia coli [14]) [µg/mL]	MIC (Escherichia coli [15]) [µg/mL]	MIC (Escherichia coli [16]) [µg/mL]
O=C(O)[C@H](O)Cc1ccc(O)c(O)c1	> 600	< 3.2	> 600	< 3.2	189	3.72	–	–	–	–	–	–	–	–	–	–	–	–	–
O=C(O)/C=C/c1ccc(O)c(O)c1 [CAFFEIC ACID]	> 600	< 3.2	> 600	< 3.2	> 600	< 3.2	–	–	–	–	–	–	–	–	–	–	–	–	–
C[C@H](CS)C(=O)N1CCC[C@H]1C(=O)O [CAPTOPRIL]	–	–	–	–	–	–	2.47	Active	–	–	–	–	–	–	–	–	–	–	–
O=C(/C=C/c1ccc(O)c(O)c1)O[C@H](Cc1ccc(O)c(O)c1)C(=O)O [ROSMARINIC ACID]	41.5	4.38	> 600	< 3.2	> 600	< 3.2	–	–	Dose-dependent effect	Active	10.2	8	8	< 0.125	< 0.125	16	< 0.125	16	< 0.125
O=C(/C=C/c1ccc(O)c(O)c1/C=C/c1ccc(O)c(O)c1)O[C@H](Cc1ccc(O)c(O)c1)C(=O)O [SALVIANOLIC ACID A]	27.2	4.57	160	3.75 to 3.79	34.3	4.46	–	–	–	–	–	4	4	< 0.125	< 0.125	16	< 0.125	16	< 0.125
